# Tests used:
# Test in all cases: relative viability (nuclei count vs DMSO), 5 days (fraction); higher = more cells survive
# [1] = compound: Cc1ccc(Nc2nccc(N(C)c3ccc4c(C)n(C)nc4c3)n2)cc1S(N)(=O)=O [Pazopanib] + C[C@@H](Oc1cc(-c2cnn(C3CCNCC3)c2)cnc1N)c1c(Cl)ccc(F)c1Cl [Crizotinib] (partner 1 µM)
# How it was run: (§1)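 One day after seeding in 1536-well plates, lung cancer cell lines were dosed by pin tool. Dosing was either single-drug or a fixed anchor-drug dose plus five library-drug doses (not always all listed) in √10 steps. After 5 days, nuclei were stained in one fix-and-stain step and counted on 4× images, and relative viability is the nuclei count of treated wells over that of vehicle wells, given as the median of duplicate plates.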
# [2] = compound: Cc1ccc(C(=O)Nc2ccc(CN3CCN(C)CC3)c(C(F)(F)F)c2)cc1C#Cc1cnc2cccnn12 [Ponatinib] + O=C(c1cc(Cc2n[nH]c(=O)c3ccccc23)ccc1F)N1CCN(C(=O)C2CC2)CC1 [Olaparib] (partner 8 µM)
# How it was run: as §1
# [3] = compound: Cc1ccc(C(=O)Nc2ccc(CN3CCN(C)CC3)c(C(F)(F)F)c2)cc1C#Cc1cnc2cccnn12 [Ponatinib] + C[C@]1(O)C[C@@H](c2nc(-c3ccc4ccc(-c5ccccc5)nc4c3)c3c(N)nccn32)C1 [Linsitinib] (partner 1 µM)
# How it was run: as §1
# [4] = compound: Cc1ccc(C(=O)Nc2ccc(CN3CCN(C)CC3)c(C(F)(F)F)c2)cc1C#Cc1cnc2cccnn12 [Ponatinib] + CC1(C)CCC(c2ccc(Cl)cc2)=C(CN2CCN(c3ccc(C(=O)NS(=O)(=O)c4ccc(N[C@H](CCN5CCOCC5)CSc5ccccc5)c(S(=O)(=O)C(F)(F)F)c4)cc3)CC2)C1 [Navitoclax] (partner 0.5 µM)
# How it was run: as §1
# [5] = compound: Cc1ccc(C(=O)Nc2ccc(CN3CCN(C)CC3)c(C(F)(F)F)c2)cc1C#Cc1cnc2cccnn12 [Ponatinib] + CC(=O)c1c(C)c2cnc(Nc3ccc(N4CCNCC4)cn3)nc2n(C2CCCC2)c1=O [Palbociclib] (partner 0.5 µM)
# How it was run: as §1
cell line,measurement,setting,value
UMC-11,relative viability,[1]; first compound 0.01 µM,0.625
same,relative viability,[1]; first compound 0.03162 µM,0.716
same,relative viability,[1]; first compound 0.1 µM,0.708
same,relative viability,[1]; first compound 0.3162 µM,0.675
same,relative viability,[1]; first compound 1 µM,0.588
same,relative viability,[2]; first compound 0.002 µM,0.405
same,relative viability,[2]; first compound 0.006325 µM,1.01
same,relative viability,[2]; first compound 0.06325 µM,0.338
same,relative viability,[2]; first compound 0.2 µM,0.366
same,relative viability,[3]; first compound 0.002 µM,1.02
same,relative viability,[3]; first compound 0.006325 µM,1.03
same,relative viability,[3]; first compound 0.06325 µM,1.16
same,relative viability,[3]; first compound 0.2 µM,1.03
same,relative viability,[4]; first compound 0.002 µM,0.311
same,relative viability,[4]; first compound 0.006325 µM,0.354
same,relative viability,[4]; first compound 0.06325 µM,0.38
same,relative viability,[4]; first compound 0.2 µM,0.345
same,relative viability,[5]; first compound 0.006325 µM,0.312
same,relative viability,[5]; first compound 0.06325 µM,0.287
same,relative viability,[5]; first compound 0.2 µM,0.346
